In patent publication US20050267128A1, “Compounds, compositions and methods of modulating the mitochondrial apoptosis-induced channel (MAC)” (priority 2004, published 2005):
pIC50: −log10 of the molar value. Entries after “also recorded” stand apart in the source; their conditions may differ.

Assays:
[1] = test system: mitochondrial apoptosis-induced channel (MAC); assay: Patch clamp of MAC in proteoliposomes containing mitochondrial outer membranes of apoptotic FL5.12 cells; format: biochemical, mouse; conditions: for voltage dependence of MAC blockade: current voltage curves between +40 mV and −40 mV; for Hill coefficient of MAC blockade / pIC50 / IC50 for MAC, stated in words: patch clamp, proteoliposomes; for pIC50: 150 mM KCl 5 mM HEPES pH 7.4, read-out: IC50 for blockade of MAC (inhibition of conductance); for reversibility of MAC blockade on removal by perfusion of the bath: wash out with 150 mM KCl 5 mM HEPES
Method: Hematopoietic FL5.12 cells are a mouse leukemia cell line that enters apoptosis after withdrawal of the growth factor interleukin-3 (IL-3) (Gross, A., Jockel, J., Wei, M. C. and Korsmeyer, S. J. (1998). Parental FL5.12 cells were cultured as previously described (Gross, A., Jockel, J., Wei, M. C. and Korsmeyer, S. J. (1998) EMBO J. 17, 3878-85) in Iscove's Modified Eagle Media (IMEM), 10% Fetal Bovine Serum, 10% WEHI-3B supplement (filtered supernatant of WEHI-3B cells secreting IL-3). Cultures were kept below 1.5 million cells/ml. Cells were washed three times in media without IL-3 (WEHI supplement) to induce apoptosis twelve hours prior to the isolation of mitochondria (Zamzami, N., Susin, S. A., Marchetti, P., Hirsch, T., Gomez-Monterrey, I., Castedo, M. and Kroemer, G. (1996).
Mitochondria were isolated from 2-15 g of FL5.12 cells as previously described for outer membrane preparations (Guo, L., Pietkiewicz, D., Pavlov, E. V., Kasianowicz, J. J., Korsmeyer, S. J., Antonsson, B. and Kinnally, K. W. (2004) American Journal of Physiology, Cell Biology. 286, C1109-17; Pavlov, E. V., Priault, M., Pietkiewicz, D., Cheng, E.H.-Y., Antonsson, B., Manon, S., Korsmeyer, S. J., Mannella, C. A. and Kinnally, K. W. (2001) J. Cell Biology 155, 725-732). Outer membranes were stripped from the inner membranes by French pressing isolated mitochondria using modifications of the method of Decker and Greenawalt (Decker, G. L. and Greenawalt, J. W. (1977) J. Ultrastr. Res. 59, 44-56) as described in (Pavlov, E. V., Priault, M., Pietkiewicz, D., Cheng, E.H.-Y., Antonsson, B., Manon, S., Korsmeyer, S. J., Mannella, C. A. and Kinnally, K. W. (2001) J. Cell Biology 155, 725-732). French pressing was done at 2000 PSI in 460 mM Mannitol 140 mM Sucrose 2 mM EDTA 10 mM HEPES pH 7.4. The pressed suspension was diluted 1:1 with 230 mM Mannitol 70 mM sucrose 1 mM EDTA 5 mM HEPES pH 7.4 and centrifuged at 10,000 rpm (12,000 g) for 10 minutes. Outer membranes were separated from inner membranes as described by Mannella (Mannella, C. A. (1982) J. Cell Biol. 94, 680-687).

[2] = test system: MAC from apoptotic HeLa cells; assay: Blockade of MAC in partially purified fractions from apoptotic HeLa cells treated with staurosporine; format: biochemical; conditions: unpublished results
[3] = test system: permeability transition pore (PTP); conditions: mitochondria; cited from earlier work
[4] = test system: neurons; conditions: cited from earlier work

SMILES | current flow through MAC upon perfusion of the bath ([1]; 50 μM, +20 mV) | voltage dependence of MAC blockade [1] | Hill coefficient of MAC blockade [1] | pIC50 [1] | reversibility of MAC blockade on removal by perfusion of the bath [1] | blockade of MAC compared with FL5.12 preparation [2] | concentration that blocks the PTP [3] | concentration that blocks mitochondrial depolarization induced by glutamate [4] | effect on MAC activity ([1]; 300 μM) | effect on MAC activity ([1]; no concentration stated (FIG. 3B)) | IC50 for MAC, stated in words [1]
CCCCOc1cc(C(=O)NCCN(CC)CC)c2ccccc2n1 [dibucaine] | rapidly reduced | not voltage dependent | 1.3±0.1 | 4.41 | reversible | similar | 50 to 100 µM | 50 to 100 µM |  |  | 
CCN(CC)CC(=O)Nc1c(C)cccc1C [lidocaine] |  |  |  |  |  |  |  |  | little effect | limited effects; also recorded: no effect | mM to M
CC(C)NCC(O)COc1cccc2ccccc12 (stereo not drawn) [propranolol] |  | not voltage dependent | 2.1±0.2 |  | not reversible |  |  |  |  |  | 
CN1CCN(CCCN2c3ccccc3Sc3ccc(C(F)(F)F)cc32)CC1 [trifluoperazine] |  | not voltage dependent | 1.4±0.2 | 6.05 | not reversible |  | 10 to 20 µM | 10 to 20 µM |  |  | high nanomolar range
